Measured values as given in patent US10323022B2, “Pyrrolidinyl urea, pyrrolidinyl thiourea and pyrrolidinyl guanidine compounds as TrkA kinase inhibitors” (Array BioPharma Inc., priority 2011, dated 2019).

Biological target: TrkA (Homo sapiens (Human), UniProt P04629)
Assay: TrkA Omnia Assay
Assay type: biochemical
Conditions: averaged IC50; 20 nM enzyme, 500 μM ATP, 10 μM peptide substrate
Experimental: Trk enzymatic selectivity was assessed using Omnia™ Kinase Assay reagents from Invitrogen Corp. Enzyme (TrkA from Invitrogen Corp.) and test compound (various concentrations) were incubated for 10 minutes at ambient temperature in a 384-well white polypropylene plate (Nunc catalog#267462). Omnia Tyr Peptide #4, as well as ATP, were then added to the plate. Final concentrations were as follows: 20 nM enzyme, 500 μM of ATP, 10 μM peptide substrate. The assay buffer consisted of 25 mM MOPS pH 7.5, 0.005% (v/v) Triton X-100 and 5 mM MgCl2. The production of phosphorylated peptide was monitored continuously for 70 minutes using a Molecular Devices FlexStation II^384 microplate reader (excitation=360 nm; emission=485 nm). Initial rates were calculated from the progress curves. IC50 values were calculated from these rates using either a 4 or 5-parameter logistic curve fit.

TrkA, sequence (P04629 33-796): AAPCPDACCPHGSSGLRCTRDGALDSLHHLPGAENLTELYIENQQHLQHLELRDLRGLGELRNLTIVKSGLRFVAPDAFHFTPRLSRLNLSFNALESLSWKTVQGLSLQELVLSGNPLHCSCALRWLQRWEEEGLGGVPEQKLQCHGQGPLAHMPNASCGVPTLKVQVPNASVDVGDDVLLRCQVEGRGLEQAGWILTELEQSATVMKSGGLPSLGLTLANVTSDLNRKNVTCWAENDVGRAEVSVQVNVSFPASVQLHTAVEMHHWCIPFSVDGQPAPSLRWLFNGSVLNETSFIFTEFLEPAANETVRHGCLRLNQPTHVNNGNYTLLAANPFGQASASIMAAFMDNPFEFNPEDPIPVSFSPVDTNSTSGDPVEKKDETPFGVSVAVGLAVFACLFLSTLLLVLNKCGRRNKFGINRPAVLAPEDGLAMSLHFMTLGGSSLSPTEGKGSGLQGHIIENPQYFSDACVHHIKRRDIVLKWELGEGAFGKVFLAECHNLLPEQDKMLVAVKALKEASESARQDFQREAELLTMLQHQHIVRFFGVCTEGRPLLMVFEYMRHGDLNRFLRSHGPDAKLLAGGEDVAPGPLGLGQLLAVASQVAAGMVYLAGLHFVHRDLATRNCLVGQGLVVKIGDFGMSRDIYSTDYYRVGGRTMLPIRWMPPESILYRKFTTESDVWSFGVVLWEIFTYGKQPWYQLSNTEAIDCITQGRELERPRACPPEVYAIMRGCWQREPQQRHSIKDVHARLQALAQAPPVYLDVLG

`COCCN1C[C@@H](NC(=O)Nc2cc(C3CCCC3)nn2-c2ccccc2)[C@H](c2ccccc2)C1` (relative stereo) [Example 24, 1-(3-cyclopentyl-1-phenyl-1H-pyrazol-5-yl)-3-(trans-1-(2-methoxyethyl)-4-phenylpyrrolidin-3-yl)urea] and `COCCN1C[C@@H](NC(=O)Nc2c3c(nn2-c2ccccc2)CCCC3)[C@H](c2ccccc2)C1` (relative stereo) [Example 26, 1-(trans-1-(2-methoxyethyl)-4-phenylpyrrolidin-3-yl)-3-(2-phenyl-4,5,6,7-tetrahydro-2H-indazol-3-yl)urea] cannot be ordered by IC50: < 100 nM for the first, < 100 nM for the second.

`CCn1nc(-c2ccccc2)cc1NC(=O)N[C@@H]1CN(CCOC)C[C@H]1c1ccccc1` (relative stereo) [Example 25, 1-(1-ethyl-3-phenyl-1H-pyrazol-5-yl)-3-(trans-1-(2-methoxyethyl)-4-phenylpyrrolidin-3-yl)urea] and `COCCN1C[C@@H](NC(=O)Nc2c(-c3ccccc3)c(C)nn2C)[C@H](c2ccccc2)C1` (relative stereo) [Example 28, 1-(1,3-dimethyl-4-phenyl-1H-pyrazol-5-yl)-3-(trans-1-(2-methoxyethyl)-4-phenylpyrrolidin-3-yl)urea] fall in the same range of IC50: 100 to 1000 nM for the first, 100 to 1000 nM for the second.

First: COCCN1C[C@@H](NC(=O)Nc2c3c(nn2C)CCC3)[C@H](c2ccccc2)C1 (relative stereo) [Example 27, 1-(trans-1-(2-methoxyethyl)-4-phenylpyrrolidin-3-yl)-3-(2-methyl-2,4,5,6-tetrahydrocyclopenta[c]pyrazol-3-yl)urea]
Second: COCCN1C[C@@H](NC(=O)Nc2c3c(nn2-c2cnn(C)c2)CCC3)[C@H](c2ccccc2)C1 (relative stereo) [Example 33, 1-(trans-1-(2-methoxyethyl)-4-phenylpyrrolidin-3-yl)-3-(2-(1-methyl-1H-pyrazol-4-yl)-2,4,5,6-tetrahydrocyclo-penta[c]pyrazol-3-yl)urea]
The IC50 of the first is higher: 1000 to 10000 nM for the first, 100 to 1000 nM for the second. The second is the more potent here.

First: COCCN1C[C@@H](NC(=O)Nc2cc(C(C)(C)C)nn2-c2ccccc2C)[C@H](c2ccccc2)C1 (relative stereo) [Example 29, 1-(3-tert-butyl-1-o-tolyl-1H-pyrazol-5-yl)-3-(trans-1-(2-methoxyethyl)-4-phenylpyrrolidin-3-yl)urea]
Second: COCCN1C[C@@H](NC(=O)Nc2cc(C(C)(C)C)nn2-c2cccc(C)c2)[C@H](c2ccccc2)C1 (relative stereo) [Example 30, 1-(3-tert-butyl-1-m-tolyl-1H-pyrazol-5-yl)-3-(trans-1-(2-methoxyethyl)-4-phenylpyrrolidin-3-yl)urea]
The IC50 of the first is higher: 1000 to 10000 nM for the first, < 100 nM for the second.

`COCCN1C[C@@H](NC(=O)Nc2c(-c3ccccc3)cnn2C)[C@H](c2ccccc2)C1` (relative stereo) [Example 31, 1-(trans-1-(2-methoxyethyl)-4-phenylpyrrolidin-3-yl)-3-(1-methyl-4-phenyl-1H-pyrazol-5-yl)urea] and `COCCN1C[C@@H](NC(=O)Nc2c(C#N)c(C)nn2-c2ccccc2)[C@H](c2ccccc2)C1` (relative stereo) [Example 32, 1-(4-cyano-3-methyl-1-phenyl-1H-pyrazol-5-yl)-3-(trans-1-(2-methoxy-ethyl)-4-phenylpyrrolidin-3-yl)urea] fall in the same range of IC50: 100 to 1000 nM for the first, 100 to 1000 nM for the second.

First: COCCN1C[C@@H](NC(=O)Nc2c3c(nn2-c2ccccn2)CCC3)[C@H](c2ccccc2)C1 (relative stereo) [Example 35, 1-(trans-1-(2-methoxyethyl)-4-phenylpyrrolidin-3-yl)-3-(2-(pyridin-2-yl)-2,4,5,6-tetrahydrocyclopenta[c]pyrazol-3-yl)urea]
Second: COCCN1C[C@@H](NC(=O)Nc2c3c(nn2-c2ccccc2)CCC3)[C@H](c2ccncc2)C1 (relative stereo) [Example 38, 1-(trans-1-(2-methoxyethyl)-4-(pyridin-4-yl)pyrrolidin-3-yl)-3-(2-phenyl-2,4,5,6-tetrahydrocyclopenta[c]pyrazol-3-yl)urea]
The IC50 of the first is higher: 1000 to 10000 nM for the first, < 100 nM for the second. The second is the more potent here.

First: COCCN1C[C@@H](NC(=O)Nc2c3c(nn2-c2ccccc2)C(C)(C)CCC3)[C@H](c2ccccc2)C1 (relative stereo) [Example 37, 1-(7,7-dimethyl-2-phenyl-4,5,6,7-tetrahydro-2H-indazol-3-yl)-3-(trans-1-(2-methoxyethyl)-4-phenylpyrrolidin-3-yl)urea]
Second: CSCCN1C[C@@H](NC(=O)Nc2c3c(nn2-c2ccccc2)CCC3)[C@H](c2ccccc2)C1 (relative stereo) [Example 183, 1-(trans-1-(2-(methylthio)ethyl)-4-phenylpyrrolidin-3-yl)-3-(2-phenyl-2,4,5,6-tetrahydrocyclopenta[c]pyrazol-3-yl)urea]
The IC50 of the first is lower: < 100 nM for the first, 100 to 1000 nM for the second. The first is the more potent here.

First: COCCN1C[C@@H](NC(=O)Nc2c3c(nn2-c2ccccc2)CCC3)[C@H](c2cccc(F)c2)C1 (relative stereo) [Example 39, trans-1-(4-(3-fluorophenyl)-1-(2-methoxyethyl)pyrrolidin-3-yl)-3-(2-phenyl-2,4,5,6-tetrahydrocyclopenta[c]pyrazol-3-yl)urea]
Second: COCCN1C[C@@H](NC(=O)Nc2c3c(nn2-c2ccccc2)CCC3)[C@H](c2ccno2)C1 (relative stereo) [Example 47, 1-(trans-4-(isoxazol-5-yl)-1-(2-methoxyethyl)pyrrolidin-3-yl)-3-(2-phenyl-2,4,5,6-tetrahydrocyclopenta[c]pyrazol-3-yl)urea]
The IC50 of the first is lower: < 100 nM for the first, 100 to 1000 nM for the second. The first is the more potent here.

`COCCN1C[C@@H](NC(=O)Nc2cc(C(C)C)nn2-c2ccccc2)[C@H](c2cccc(F)c2)C1` (relative stereo) [Example 40, trans-1-(-4-(3-fluorophenyl)-1-(2-methoxyethyl)pyrrolidin-3-yl)-3-(3-isopropyl-1-phenyl-1H-pyrazol-5-yl)urea] and `COCCN1C[C@@H](NC(=O)Nc2cc(C(C)C)nn2-c2ccccc2)[C@H](c2cccc(Cl)c2)C1` (relative stereo) [Example 42, trans-1-(4-(3-chlorophenyl)-1-(2-methoxyethyl)pyrrolidin-3-yl)-3-(3-isopropyl-1-phenyl-1H-pyrazol-5-yl)urea] cannot be ordered by IC50: < 100 nM for the first, < 100 nM for the second.

First: COCCN1C[C@@H](NC(=O)Nc2cc(C(C)C)nn2-c2ccccc2)[C@H](c2ccc(F)cc2)C1 (relative stereo) [Example 41, trans-1-(4-(4-fluorophenyl)-1-(2-methoxyethyl)pyrrolidin-3-yl)-3-(3-isopropyl-1-phenyl-1H-pyrazol-5-yl)urea]
Second: COCCN1C[C@@H](NC(=O)Nc2cc(C(C)C)nn2-c2ccccc2)[C@H](c2ccccc2F)C1 (relative stereo) [Example 43, trans-1-(4-(2-fluorophenyl)-1-(2-methoxyethyl)pyrrolidin-3-yl)-3-(3-isopropyl-1-phenyl-1H-pyrazol-5-yl)urea]
The IC50 of the first is lower: < 100 nM for the first, 100 to 1000 nM for the second.

First: COCCN1C[C@@H](NC(=O)Nc2cc(C(C)C)nn2-c2ccccc2)[C@H](c2cccs2)C1 (relative stereo) [Example 44, trans-1-(3-isopropyl-1-phenyl-1H-pyrazol-5-yl)-3-(1-(2-methoxyethyl)-4-(thiophen-2-yl)pyrrolidin-3-yl)urea]
Second: COCCN1C[C@@H](NC(=O)Nc2c3c(nn2-c2ccccc2)CCC3)[C@H](c2cnco2)C1 (relative stereo) [Example 46, 1-(trans-1-(2-methoxyethyl)-4-(oxazol-5-yl)pyrrolidin-3-yl)-3-(2-phenyl-2,4,5,6-tetrahydrocyclopenta[c]pyrazol-3-yl)urea]
The IC50 of the first is lower: < 100 nM for the first, 1000 to 10000 nM for the second. The first is the more potent here.

`O=C(Nc1c2c(nn1-c1ccccc1)CCC2)N[C@@H]1CN(CCOC(F)(F)F)C[C@H]1c1ccccc1` (relative stereo) [Example 182, 1-(trans-4-phenyl-1-(2-(trifluoromethoxy)ethyl)pyrrolidin-3-yl)-3-(2-phenyl-2,4,5,6-tetrahydrocyclopenta[c]pyrazol-3-yl)urea] and `O=C(Nc1c2c(nn1-c1ccccc1)CCC2)N[C@@H]1CN(CC(F)(F)F)C[C@H]1c1ccccc1` (relative stereo) [Example 194, 1-((trans)-4-phenyl-1-(2,2,2-trifluoroethyl)pyrrolidin-3-yl)-3-(2-phenyl-2,4,5,6-tetrahydrocyclopenta[c]pyrazol-3-yl)urea] cannot be ordered by IC50: < 100 nM for the first, < 100 nM for the second.

`CCN1C[C@@H](NC(=O)Nc2c3c(nn2-c2ccccc2)CCC3)[C@H](c2ccccc2)C1` (relative stereo) [Example 193, 1-((trans)-1-ethyl-4-phenylpyrrolidin-3-yl)-3-(2-phenyl-2,4,5,6-tetrahydrocyclopenta[c]pyrazol-3-yl)urea] and `O=C(Nc1c2c(nn1-c1ccccc1)CCC2)N[C@@H]1CN(C(CF)CF)C[C@H]1c1ccccc1` (relative stereo) [Example 206, 1-((trans)-1-(1,3-difluoropropan-2-yl)-4-phenylpyrrolidin-3-yl)-3-(2-phenyl-2,4,5,6-tetrahydrocyclopenta[c]pyrazol-3-yl)urea] fall in the same range of IC50: 100 to 1000 nM for the first, 100 to 1000 nM for the second.

`Cc1nn(-c2ccccc2)c(NC(=O)N[C@@H]2CN(CC(F)(F)F)C[C@H]2c2ccccc2)c1C` (relative stereo) [Example 195, 1-(3,4-dimethyl-1-phenyl-1H-pyrazol-5-yl)-3-((trans)-4-phenyl-1-(2,2,2-trifluoroethyl)pyrrolidin-3-yl)urea] and `COCCOc1nn(-c2ccccc2)c(NC(=O)N[C@@H]2CN(CC(F)(F)F)C[C@H]2c2ccccc2)c1C` (relative stereo) [Example 196, 1-(3-(2-methoxyethoxy)-4-methyl-1-phenyl-1H-pyrazol-5-yl)-3-((trans)-4-phenyl-1-(2,2,2-trifluoroethyl)pyrrolidin-3-yl)urea] cannot be ordered by IC50: < 100 nM for the first, < 100 nM for the second.
